Key:
CCRF-CEM = experiment: NCI60 one-dose screen (10 μM), Leukemia; format: cell-based; conditions: Homo sapiens, 10 μM, Leukemia, read-out: Growth percent rate
HL-60(TB) = experiment: NCI60 one-dose screen (10 μM), Leukemia; format: cell-based; conditions: Homo sapiens; 10 μM; HL-60(TB), Leukemia; read-out: Growth percent rate
K-562 = experiment: NCI60 one-dose screen (10 μM), Leukemia; format: cell-based; conditions: Homo sapiens, K562; 10 μM; K-562, Leukemia; read-out: Growth percent rate
MOLT-4 = experiment: NCI60 one-dose screen (10 μM), Leukemia; format: cell-based, human; conditions: Homo sapiens; 10 μM; MOLT-4, Leukemia; read-out: Growth percent rate
RPMI-8226 = experiment: NCI60 one-dose screen (10 μM), Leukemia; format: cell-based; conditions: Homo sapiens; 10 μM; RPMI-8226, Leukemia; read-out: Growth percent rate
A549/ATCC = experiment: NCI60 one-dose screen (10 μM), Non-small Cell Lung Cancer; format: cell-based; conditions: Homo sapiens; 10 μM; A549/ATCC, Non-small Cell Lung Cancer; read-out: Growth percent rate
EKVX = experiment: as above; format: cell-based; conditions: Homo sapiens, 10 μM, Non-small Cell Lung Cancer, read-out: Growth percent rate
HOP-62 = experiment: as above; format: cell-based; conditions: Homo sapiens; 10 μM; HOP-62, Non-small Cell Lung Cancer; read-out: Growth percent rate
NCI-H23 = experiment: as above; format: cell-based; conditions: Homo sapiens; 10 μM; NCI-H23, Non-small Cell Lung Cancer; read-out: Growth percent rate
NCI-H322M = experiment: as above; format: cell-based; conditions: Homo sapiens, 10 μM, Non-small Cell Lung Cancer, read-out: Growth percent rate
NCI-H460 = experiment: as above; format: cell-based; conditions: Homo sapiens; 10 μM; NCI-H460, Non-small Cell Lung Cancer; read-out: Growth percent rate
NCI-H522 = experiment: as above; format: cell-based; conditions: Homo sapiens; 10 μM; NCI-H522, Non-small Cell Lung Cancer; read-out: Growth percent rate
COLO 205 = experiment: NCI60 one-dose screen (10 μM), Colon Cancer; format: cell-based, human; conditions: Homo sapiens; 10 μM; COLO 205, Colon Cancer; read-out: Growth percent rate
HCT-116 = experiment: NCI60 one-dose screen (10 μM), Colon Cancer; format: cell-based; conditions: Homo sapiens; 10 μM; HCT-116, Colon Cancer; read-out: Growth percent rate
HCT-15 = experiment: NCI60 one-dose screen (10 μM), Colon Cancer; format: cell-based; conditions: Homo sapiens; 10 μM; HCT-15, Colon Cancer; read-out: Growth percent rate
KM12 = experiment: NCI60 one-dose screen (10 μM), Colon Cancer; format: cell-based, human; conditions: for activity at 10 µM: Homo sapiens, KM12, Colon Cancer, read-out: Growth percent rate
SW-620 = experiment: NCI60 one-dose screen (10 μM), Colon Cancer; format: cell-based; conditions: Homo sapiens; 10 μM; SW-620, Colon Cancer; read-out: Growth percent rate
SF-268 = experiment: NCI60 one-dose screen (10 μM), CNS Cancer; format: cell-based; conditions: Homo sapiens; 10 μM; SF-268, CNS Cancer; read-out: Growth percent rate
SF-295 = experiment: NCI60 one-dose screen (10 μM), CNS Cancer; format: cell-based; conditions: Homo sapiens; 10 μM; SF-295, CNS Cancer; read-out: Growth percent rate
SF-539 = experiment: NCI60 one-dose screen (10 μM), CNS Cancer; format: cell-based, human; conditions: for activity at 10 µM: Homo sapiens, SF-539, CNS Cancer, read-out: Growth percent rate
SNB-75 = experiment: NCI60 one-dose screen (10 μM), CNS Cancer; format: cell-based, human; conditions: for activity at 10 µM: Homo sapiens, SNB-75, CNS Cancer, read-out: Growth percent rate
U251 = experiment: NCI60 one-dose screen (10 μM), CNS Cancer; format: cell-based; conditions: Homo sapiens, U-251; 10 μM; U251, CNS Cancer; read-out: Growth percent rate
LOX IMVI = experiment: NCI60 one-dose screen (10 μM), Melanoma; format: cell-based, human; conditions: for activity at 10 µM: Homo sapiens, LOX IMVI, Melanoma, read-out: Growth percent rate
MALME-3M = experiment: NCI60 one-dose screen (10 μM), Melanoma; format: cell-based; conditions: Homo sapiens; 10 μM; MALME-3M, Melanoma; read-out: Growth percent rate
MDA-MB-435 = experiment: NCI60 one-dose screen (10 μM), Melanoma; format: cell-based; conditions: Homo sapiens; 10 μM; MDA-MB-435, Melanoma; read-out: Growth percent rate
SK-MEL-2 = experiment: NCI60 one-dose screen (10 μM), Melanoma; format: cell-based; conditions: Homo sapiens; 10 μM; SK-MEL-2, Melanoma; read-out: Growth percent rate
SK-MEL-28 = experiment: NCI60 one-dose screen (10 μM), Melanoma; format: cell-based; conditions: Homo sapiens; 10 μM; SK-MEL-28, Melanoma; read-out: Growth percent rate
UACC-257 = experiment: NCI60 one-dose screen (10 μM), Melanoma; format: cell-based; conditions: Homo sapiens; 10 μM; UACC-257, Melanoma; read-out: Growth percent rate
IGROV1 = experiment: NCI60 one-dose screen (10 μM), Ovarian Cancer; format: cell-based; conditions: Homo sapiens, IGROV-1; 10 μM; IGROV1, Ovarian Cancer; read-out: Growth percent rate
OVCAR-3 = experiment: NCI60 one-dose screen (10 μM), Ovarian Cancer; format: cell-based; conditions: Homo sapiens; 10 μM; OVCAR-3, Ovarian Cancer; read-out: Growth percent rate
OVCAR-4 = experiment: NCI60 one-dose screen (10 μM), Ovarian Cancer; format: cell-based; conditions: Homo sapiens; 10 μM; OVCAR-4, Ovarian Cancer; read-out: Growth percent rate
OVCAR-8 = experiment: NCI60 one-dose screen (10 μM), Ovarian Cancer; format: cell-based; conditions: Homo sapiens; 10 μM; OVCAR-8, Ovarian Cancer; read-out: Growth percent rate
786–0 = experiment: NCI60 one-dose screen (10 μM), Renal Cancer; format: cell-based; conditions: Homo sapiens; 10 μM; 786-0, Renal Cancer; read-out: Growth percent rate
A498 = experiment: NCI60 one-dose screen (10 μM), Renal Cancer; format: cell-based; conditions: Homo sapiens; 10 μM; A498, Renal Cancer; read-out: Growth percent rate
ACHN = experiment: NCI60 one-dose screen (10 μM), Renal Cancer; format: cell-based; conditions: Homo sapiens, 10 μM, Renal Cancer, read-out: Growth percent rate
CAKI-1 = experiment: NCI60 one-dose screen (10 μM), Renal Cancer; format: cell-based; conditions: Homo sapiens; 10 μM; CAKI-1, Renal Cancer; read-out: Growth percent rate
RXF 393 = experiment: NCI60 one-dose screen (10 μM), Renal Cancer; format: cell-based, human; conditions: Homo sapiens; 10 μM; RXF 393, Renal Cancer; read-out: Growth percent rate
SN12C = experiment: NCI60 one-dose screen (10 μM), Renal Cancer; format: cell-based; conditions: Homo sapiens, 10 μM, Renal Cancer, read-out: Growth percent rate
TK-10 = experiment: NCI60 one-dose screen (10 μM), Renal Cancer; format: cell-based; conditions: Homo sapiens; 10 μM; TK-10, Renal Cancer; read-out: Growth percent rate
MCF7 = experiment: NCI60 one-dose screen (10 μM), Breast Cancer; format: cell-based; conditions: Homo sapiens; 10 μM; MCF7, Breast Cancer; read-out: Growth percent rate
HS 578T = experiment: NCI60 one-dose screen (10 μM), Breast Cancer; format: cell-based; conditions: Homo sapiens; 10 μM; HS 578T, Breast Cancer; read-out: Growth percent rate
[1] = system: 60 human tumor cell lines (NCI60); experiment: NCI60 one-dose screen (10 μM), whole panel; format: cell-based; conditions: for antiproliferative effect (in words): 10 μM one-dose, NCI60; for activity at 10 µM: mean over 60 human cancer cell lines, read-out: Growth percent rate, Mean

CCC12C=CCN3CCC4(c5cc(NC(=O)CN6CCN(c7ccc(C(F)(F)F)cc7)CC6)c(OC)cc5N(C)C4C(O)(C(=O)OC)C1OC(C)=O)C32 (stereo not drawn) [Compound 17] was tested, and the activity at 10 µM (CCRF-CEM) was -7.07%, the activity at 10 µM (HL-60(TB)) was 1.98% and the activity at 10 µM (K-562) was 11.4%. The activity at 10 µM (MOLT-4) was 8.66%, the activity at 10 µM (RPMI-8226) was -14.1% and the activity at 10 µM (A549/ATCC) was 20.3%. The activity at 10 µM (EKVX) was 21.3%, the activity at 10 µM (HOP-62) was -38.8% and the activity at 10 µM (NCI-H23) was 15.2%. It also gave an activity at 10 µM (NCI-H322M) of 39.1%, an activity at 10 µM (NCI-H460) of 9.27% and an activity at 10 µM (NCI-H522) of -24.4%. For the same molecule, the activity at 10 µM (COLO 205) was -74.5%, the activity at 10 µM (HCT-116) was 0.31% and the activity at 10 µM (HCT-15) was -56.5%. For the same molecule, the growth percent rate (KM12; 10 μM one-dose, KM12 colon cancer, negative = lethality) was −84.40%, the activity at 10 µM (KM12) was -84.4% and the activity at 10 µM (SW-620) was 1.45%. The activity at 10 µM (SF-268) was -6.14%, the activity at 10 µM (SF-295) was -70.2% and the growth percent rate (SF-539; 10 μM one-dose, SF-539 CNS cancer, negative = lethality) was < −80%. The activity at 10 µM (SF-539) was -83.4%, the growth percent rate (SNB-75; 10 μM one-dose, SNB-75 CNS cancer, negative = lethality) was < −80% and the activity at 10 µM (SNB-75) was -87.6%. For the same molecule, the activity at 10 µM (U251) was 7.24%, the growth percent rate (LOX IMVI; 10 μM one-dose, LOX-IMVI melanoma, negative = lethality) was −95.37% and the activity at 10 µM (LOX IMVI) was -95.4%. The activity at 10 µM (MALME-3M) was -89.5%, the activity at 10 µM (MDA-MB-435) was -79.8% and the activity at 10 µM (SK-MEL-2) was -66.2%. It also gave an activity at 10 µM (SK-MEL-28) of -67.6%, an activity at 10 µM (UACC-257) of -65.3% and an activity at 10 µM (IGROV1) of 12.7%. It also gave an activity at 10 µM (OVCAR-3) of -48%, an activity at 10 µM (OVCAR-4) of 20.4% and an activity at 10 µM (OVCAR-8) of 26.3%. The activity at 10 µM (786–0) was 24.8%, the activity at 10 µM (A498) was -9.05% and the activity at 10 µM (ACHN) was 3.15%. The activity at 10 µM (CAKI-1) was 10.8%, the activity at 10 µM (RXF 393) was -36.5% and the activity at 10 µM (SN12C) was -17%. The activity at 10 µM (TK-10) was 33.4%, the activity at 10 µM (MCF7) was 0.95% and the activity at 10 µM (HS 578T) was -3.36%. The “antiproliferative effect (in words)” value [1] was “highly effective in several types of cancer” and the activity at 10 µM [1] was -24.7%.

In the case of CCC12C=CCN3CCC4(c5cc(NC(=O)CCl)c(OC)cc5N(C)C4C(O)(C(=O)OC)C1OC(C)=O)C32 (stereo not drawn) [Compound 12, 10-chloroacetamidovindoline], the activity at 10 µM (CCRF-CEM) is reported as 12.6%, the activity at 10 µM (HL-60(TB)) is reported as 37.9% and the activity at 10 µM (K-562) is reported as 36.4%. It also gave an activity at 10 µM (MOLT-4) of -26.9%, an activity at 10 µM (RPMI-8226) of -24.7% and an activity at 10 µM (A549/ATCC) of 64%. It also gave an activity at 10 µM (EKVX) of 46.6%, an activity at 10 µM (HOP-62) of -57.6% and an activity at 10 µM (NCI-H23) of -4.42%. For the same molecule, the activity at 10 µM (NCI-H322M) was 58.9%, the activity at 10 µM (NCI-H460) was 51% and the activity at 10 µM (NCI-H522) was 8.28%. The activity at 10 µM (COLO 205) was 87.2%, the activity at 10 µM (HCT-116) was 41.2% and the activity at 10 µM (HCT-15) was 50.1%. It also gave an activity at 10 µM (KM12) of 41.5%, an activity at 10 µM (SW-620) of 64.5% and an activity at 10 µM (SF-268) of -0.99%. For the same molecule, the activity at 10 µM (SF-295) was 52.2%, the activity at 10 µM (SF-539) was 4.74% and the activity at 10 µM (SNB-75) was -8.81%. It also gave an activity at 10 µM (U251) of -47.9%, an activity at 10 µM (LOX IMVI) of 11.5% and an activity at 10 µM (MALME-3M) of -14.1%. For the same molecule, the activity at 10 µM (MDA-MB-435) was 39.9%, the activity at 10 µM (SK-MEL-2) was -69.6% and the activity at 10 µM (SK-MEL-28) was -0.03%. It also gave an activity at 10 µM (UACC-257) of -3.69%, an activity at 10 µM (IGROV1) of 27.5% and an activity at 10 µM (OVCAR-3) of -14.7%. The activity at 10 µM (OVCAR-4) was -17.1%, the activity at 10 µM (OVCAR-8) was 29.6% and the activity at 10 µM (786–0) was 21.3%. It also gave an activity at 10 µM (A498) of 54.6%, an activity at 10 µM (ACHN) of 37.3% and an activity at 10 µM (CAKI-1) of 43.8%. For the same molecule, the activity at 10 µM (RXF 393) was -32.6%, the activity at 10 µM (SN12C) was 11% and the activity at 10 µM (TK-10) was 24.8%. The activity at 10 µM (MCF7) was 2.74%, the activity at 10 µM (HS 578T) was -16.8% and the “antiproliferative effect (in words)” value [1] was “moderate cytostatic activity”. It also gave an activity at 10 µM [1] of 18.1%.
